From patent publication US20030021772A1 (priority 2001, published 2003)

Assays:
[1] = tested on: effects of jet lag and sleep deprivation on human beings; assay: ANAM Running Memory Test (vigilance, working memory) after overnight flight; assay type: in vivo; conditions: sublingual NADH 20 mg
Description: (§1) The efficacy of a stabilized, sublingual form of reduced nicotinamide adenine dinucleotide (NADH, available commercially under the name ENADA® from Menuco Corp.) as a treatment for the effects of jet lag and sleep deprivation on human beings was examined. Healthy individuals were treated with NADH on the day following an overnight flight across North America, and the effects of NADH on their cognitive functioning were monitored. Although the sublingual form of NADH was used in these examples, any of the aforementioned forms of NADH could have been employed.
(§2) The subjects in these examples were volunteers between 35 and 55 years of age, and were in good general physical health. […] In addition, subjects were required to have a normal day/night sleep schedule in their home time zone, and to have an Epworth Sleepiness Scale rating >8 at baseline (“baseline” being the testing in San Diego on the day of the flight) (see E. Hoddes et al., Quantification of Sleepiness: A New Approach, Psychophysiology (1973), 10(4):431-6). […]
(§3) Subjects arrived at the San Diego, Calif. test site at 1200 hours on the day of the flight. […] Subjects were transported to the San Diego Airport and flown to Phoenix, Ariz. where they were shuttled to a conference room at a nearby hotel, provided dinner, and readministered the battery of tests at approximately 2030 hours. […]

[2] = tested on: effects of jet lag and sleep deprivation on human beings; assay: Kay Continuous Performance Test (KCPT), sustained attention and vigilance; assay type: in vivo; conditions: sublingual NADH 20 mg
Description: as §1
The subjects in these examples were volunteers between 35 and 55 years of age, and were in good general physical health. At a screening visit, subjects were urine tested to screen for the use of illicit drugs and pregnancy. […] In addition, subjects were required to have a normal day/night sleep schedule in their home time zone, and to have an Epworth Sleepiness Scale rating >8 at baseline (“baseline” being the testing in San Diego on the day of the flight) (see E. Hoddes et al., Quantification of Sleepiness: A New Approach, Psychophysiology (1973), 10(4):431-6). […]
as §3
(§4) Sublingual NADH 20 mg (4 tablets of sublingual ENADAlert™ 5 mg) or an equal number of identical placebo tablets were administered by study site personnel to the subjects upon their arrival at the Washington test site. At the test site, subjects' activities were carefully monitored to avoid dehydration, exposure to daylight (subjects were kept indoors) and hunger (they were provided breakfast and lunch, which all subjects ate). […]

[3] = tested on: effects of jet lag and sleep deprivation on human beings; assay: CogScreen Shifting Attention Test: Instruction Condition (working memory); assay type: in vivo; conditions: sublingual NADH 20 mg
Description: as §1, §2, §3

[4] = tested on: effects of jet lag and sleep deprivation on human beings; assay: ANAM Math Test (working memory, math reasoning); assay type: in vivo; conditions: sublingual NADH 20 mg
Description: as §1, §2, §3

[5] = tested on: effects of jet lag and sleep deprivation on human beings; assay: CCAB Mark Numbers Test (divided attention); assay type: in vivo; conditions: sublingual NADH 20 mg
Description: as §1, §2, §3

[6] = tested on: effects of jet lag and sleep deprivation on human beings; assay: CogScreen Visual Sequence Comparison Test (visual perceptual speed and accuracy); assay type: in vivo; conditions: sublingual NADH 20 mg; PM test vs baseline; placebo 1.4; P=0.026
Description: as §1, §2, §3

[7] = tested on: effects of jet lag and sleep deprivation on human beings; assay: CogScreen Matching to Sample Test; assay type: in vivo; conditions: sublingual NADH 20 mg; baseline to PM; placebo 1.0; P=0.078
Description: as §1, §2, §3

[8] = tested on: effects of jet lag and sleep deprivation on human beings; assay: CogScreen Dual Task Test: Tracking Alone (psychomotor functioning); assay type: in vivo; conditions: sublingual NADH 20 mg, 31% at baseline
Description: as §1, §2, §3

[9] = tested on: effects of jet lag and sleep deprivation on human beings; assay: Stanford Sleepiness Scale self-report; assay type: in vivo; conditions: sublingual NADH 20 mg
Description: as §1
The subjects in these examples were volunteers between 35 and 55 years of age, and were in good general physical health. At a screening visit, subjects were urine tested to screen for the use of illicit drugs and pregnancy. Cognitive screening with the Trail Making Test and Symbol Digit Modalities Test (see M. D. Lezak, Neuropsychological Assessment, 3rd ed., Oxford University Press (1995)) was used to exclude subjects with cognitive function test scores>1 SD below the mean for their age. Subjects were required to be gainfully employed, to have completed 14 years of formal education, and to have none of the following conditions: history of substance abuse, obesity (body mass index>30 kg/m^2), air sickness, pregnancy, nicotine use (within 6-months), mental health disorder (within 1 year), or sleep disorder. In addition, subjects were required to have a normal day/night sleep schedule in their home time zone, and to have an Epworth Sleepiness Scale rating >8 at baseline (“baseline” being the testing in San Diego on the day of the flight) (see E. Hoddes et al., Quantification of Sleepiness: A New Approach, Psychophysiology (1973), 10(4):431-6). Subjects were not permitted to be taking antidepressant medications, CNS stimulants, neuroleptics, Ginseng, Gingko Biloba, melatonin, phosphatylcholine, -acetyl carnatene, or other medications/nutritional supplements reported to enhance cognitive functioning within 90 days of the study. During the study, subjects were not permitted to use caffeine, alcohol or to take any prescription or over-the-counter medications known to enhance or depress CNS functioning.
Subjects arrived at the San Diego, Calif. test site at 1200 hours on the day of the flight. The study protocol was reviewed with the subjects and they were then each issued a laptop computer (IBM Thinkpad Model 760) and familiarized with the tests and measures to be used in the study. At approximately 1500 hours subjects were administered the entire battery of tests to establish their baseline performance (“baseline”). Subjects also received training in the method for taking the sublingual tablets. Subjects were transported to the San Diego Airport and flown to Phoenix, Ariz. where they were shuttled to a conference room at a nearby hotel, provided dinner, and readministered the battery of tests at approximately 2030 hours. Subjects were shuttled back to the airport and boarded a flight to Baltimore, Md. at 2230 hours. Thirty minutes into the flight the subjects were instructed to complete a subset of the battery of tests. Subjects were permitted to sleep after completing the tests. The duration of the flight from Phoenix to Baltimore is approximately 4 hours. Furthermore, there is a 3-hour time difference between San Diego and Baltimore. The local time in Baltimore upon arrival was approximately 0600 hours. After breakfast, subjects were shuttled to the Washington, D.C. test site where they arrived at approximately 0800 hours.
as §4

[10] = tested on: effects of jet lag and sleep deprivation on human beings; assay: Walter Reed Mood Scale self-report; assay type: in vivo; conditions: sublingual NADH 20 mg
Description: as §1, §2, §3

human beings = assay: Adverse effects (headaches) during the jet lag study; assay type: in vivo; conditions: sublingual NADH 20 mg
Description: as §1, §2, §3

Stability at acidic pH = assay type: physicochemical; conditions: pHs below 7, as in the human stomach
Description: Therefore, when used in oral form, these substances must be coated with an acid-stable protective film so that they can survive the stomach environment for subsequent absorption by the intestine. Suitable acid-stable coatings are known in the art and can be applied by a conventional coating process after the active ingredients are formed into a tablet or capsule. Examples of suitable coatings are: cellulose acetate phthalate; polyvinylacetate phthalate; hydroxyl-propyl-methyl cellulose phthalate; methacryllic acid copolymers; fat-wax; shellac; zein; aqua-coating; and surerelease. Another possibility for the coating is a solution of a phthalate and a lack dry substance in isopropanol. An example of a suitable lack dry substance is sold under the name […]™ by Rohm Pharma. Alternatively, a protein coating in an aqueous medium may be applied. However, a sugar-coating should not be used because it will destabilize NADH.

NC(=O)C1=CN([C@@H]2O[C@H](COP(=O)(O)OP(=O)(O)OC[C@H]3O[C@@H](n4cnc5c(N)ncnc54)[C@H](O)[C@@H]3O)[C@@H](O)[C@H]2O)C=CC1 [NADH, reduced nicotinamide adenine dinucleotide]
mean accuracy on the Running Memory Test ([1]; afternoon (PM) test, placebo 91%): 96% | Running Memory accuracy ([1]; stable across all three sessions (baseline, AM, PM), 14 subjects, Group x Session P=0.036, placebo dropped 95% to 91%): approximately 96% | subjects with normal baseline performance who made two or more errors on KCPT ([2]; AM test, 90 min after dosing, placebo 44%): 36% | subjects who had resumed a normal level of KCPT performance ([2]; PM test, placebo 63%, P<0.08): 86% | subjects with omission errors on the KCPT ([2]; afternoon, placebo 37%): 14% | more problems correctly completed per minute vs. baseline (Shifting Attention Test throughput) ([3]; AM test vs baseline, placebo 6.8, Group x Session P<0.05): 13.2 problems per minute | Shifting Attention Test: Instruction Condition accuracy ([3]; AM test, 92.5% at baseline, placebo 93% to 91%): 95% | ANAM Math Test throughput improvement relative to baseline ([4]; AM test, placebo 6%, Group x Session P<0.07): 15% | ANAM Math Test throughput improvement relative to baseline ([4]; PM test, placebo 4%): 11% | increase of Mark Numbers Test Total Score ([5]; PM test, placebo 19.2 points, P=0.011): 77.5 points | decrease of secondary task reaction time, Mark Numbers Test ([5]; baseline to AM, placebo increased by 0.44 seconds, P=0.016): 0.15 s | more items correctly completed per minute vs baseline (Visual Sequence Comparison throughput) [6]: 5.4 items per minute | more correct responses per minute (Matching to Sample throughput) [7]: 4.9 correct responses per minute | subjects with tracking failures ([8]; AM test, placebo 41%): 33% | subjects with tracking failures ([8]; PM test, placebo 29%, P<0.09): 11% | subjects reporting an increase in sleepiness compared to baseline ([9]; AM test session, placebo 62.5%): 57.1% | subjects with Stanford Sleepiness Scale rating of 1 or 2 ([9]; AM test, 82% at baseline, placebo identical): 35% | subjects with Stanford Sleepiness Scale rating of 3 or more ([9]; AM test, placebo identical): 65% | subjects no longer reporting an increase in sleepiness relative to baseline ([9]; PM test session, placebo 25%): 57.7% | number of subjects with Stanford Sleepiness Scale rating of 1 or 2 ([9]; PM test, 17 subjects, placebo four, p=0.07): eight | number of subjects with Stanford Sleepiness Scale rating of 3 or more ([9]; PM test, 17 subjects, placebo thirteen): nine | subjects reporting no sleepiness ([9]; afternoon test, with 11 additional subjects (n=46), placebo 18%, P<0.02): 48% | self-reported fatigue and activity level, difference between NADH and placebo groups [10]: no significant differences | adverse effects attributable to treatment (human beings): no adverse effects | stability at pHs below 7 (Stability at acidic pH): very unstable
